ChEMBL document CHEMBL1201862, “PubChem BioAssay data set” (2004)
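The compound was tested at five concentrations on cells cultured in 96-well plates, with a 48-hour exposure period. Here, GI50 denotes the concentration required for 50% inhibition of growth.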 Activity calls are given as the source filed them. No stated cut-off is given here; in the data, active = GI50 up to about 1.1 µM and inactive = higher.

Key:
Assay in all cases: growth of human tumour cells (NCI), 48 h
[1] = test system: ACHN
[2] = test system: CCRF-CEM
[3] = test system: COLO 205
[4] = test system: M14
[5] = test system: NCI-H226
[6] = test system: NCI-H522
[7] = test system: OVCAR-5
[8] = test system: SF-268
[9] = test system: SK-MEL-28
[10] = test system: SK-MEL-5
[11] = test system: SN12C
[12] = test system: SNB-75
[13] = test system: SW-620
[14] = test system: TK-10
[15] = test system: UACC-257
[16] = test system: EKVX
[17] = test system: HL-60
[18] = test system: IGROV-1

| Compound | GI50 [1] | GI50 [2] | GI50 [3] | GI50 [4] | GI50 [5] | GI50 [6] | GI50 [7] | GI50 [8] | GI50 [9] | GI50 [10] | GI50 [11] | GI50 [12] | GI50 [13] | GI50 [14] | GI50 [15] | GI50 [16] | GI50 [17] | GI50 [18] |
| --- | --- | --- | --- | --- | --- | --- | --- | --- | --- | --- | --- | --- | --- | --- | --- | --- | --- | --- |
| Cc1c[nH]c2c1C13CC1CN(C(=O)c1cc4cc(NC(=O)c5cc6ccccc6o5)ccc4[nH]1)C3=CC2=O (centres undefined) | < 0.001 µM (active) | < 0.001 µM (active) | < 0.001 µM (active) | < 0.001 µM (active) | < 0.001 µM (active) | < 0.001 µM (active) | < 0.001 µM (active) | < 0.001 µM (active) | < 0.001 µM (active) | < 0.001 µM (active) | < 0.001 µM (active) | < 0.001 µM (active) | < 0.001 µM (active) | < 0.001 µM (active) | < 0.001 µM (active) | – | – | – |
| Oc1ccc2occ3c2c1CCC3 | > 100 µM (inactive) | > 100 µM (inactive) | > 100 µM (inactive) | > 100 µM (inactive) | – | – | – | – | > 100 µM (inactive) | > 100 µM (inactive) | > 100 µM (inactive) | > 100 µM (inactive) | > 100 µM (inactive) | > 100 µM (inactive) | > 100 µM (inactive) | 72.6 µM (inactive) | 44.4 µM (inactive) | > 100 µM (inactive) |
| NC(=O)c1c([N+](=O)[O-])cc(C(F)(F)F)cc1[N+](=O)[O-] | > 100 µM (inactive) | – | 26.1 µM (inactive) | 76.6 µM (inactive) | > 100 µM (inactive) | 21.5 µM (inactive) | > 100 µM (inactive) | > 100 µM (inactive) | > 100 µM (inactive) | 50 µM (inactive) | 52.4 µM (inactive) | > 100 µM (inactive) | 44.5 µM (inactive) | > 100 µM (inactive) | 27 µM (inactive) | > 100 µM (inactive) | 18 µM (inactive) | > 100 µM (inactive) |
| COc1ccc(/C(=C/n2ccnc2)C(=O)c2ccc(OC)c(OC)c2)cc1 | > 100 µM (inactive) | > 100 µM (inactive) | > 100 µM (inactive) | > 100 µM (inactive) | > 100 µM (inactive) | > 100 µM (inactive) | > 100 µM (inactive) | > 100 µM (inactive) | > 100 µM (inactive) | > 100 µM (inactive) | > 100 µM (inactive) | > 100 µM (inactive) | > 100 µM (inactive) | > 100 µM (inactive) | > 100 µM (inactive) | > 100 µM (inactive) | > 100 µM (inactive) | – |
| C=CCN1/C(=C2\SC(=S)N(c3ccc(C)cc3)C2=O)Sc2c1ncn(C)c2=O | > 100 µM (inactive) | > 100 µM (inactive) | 96.8 µM (inactive) | > 100 µM (inactive) | 78.5 µM (inactive) | 46.7 µM (inactive) | > 100 µM (inactive) | > 100 µM (inactive) | – | 38.4 µM (inactive) | > 100 µM (inactive) | 40.7 µM (inactive) | > 100 µM (inactive) | > 100 µM (inactive) | > 100 µM (inactive) | 69 µM (inactive) | 83.4 µM (inactive) | > 100 µM (inactive) |
| COC(=O)C(C(=O)C(=O)Nc1ccccc1C(C)=O)c1nc2ccc(Cl)cc2nc1O (centres undefined) | > 100 µM (inactive) | > 100 µM (inactive) | > 100 µM (inactive) | > 100 µM (inactive) | 78.3 µM (inactive) | – | > 100 µM (inactive) | > 100 µM (inactive) | > 100 µM (inactive) | > 100 µM (inactive) | > 100 µM (inactive) | 99.5 µM (inactive) | > 100 µM (inactive) | > 100 µM (inactive) | > 100 µM (inactive) | 56.9 µM (inactive) | > 100 µM (inactive) | > 100 µM (inactive) |
| C/C(=N/N(C=O)C[n+]1ccccc1)C(CN(CC(C)C)CC(C)C)C(=O)Nc1ccc(C)cc1C (centres undefined) | 94.2 µM (inactive) | > 100 µM (inactive) | > 100 µM (inactive) | > 100 µM (inactive) | – | > 100 µM (inactive) | 63.1 µM (inactive) | 43 µM (inactive) | > 100 µM (inactive) | 57.1 µM (inactive) | > 100 µM (inactive) | – | > 100 µM (inactive) | 42.4 µM (inactive) | > 100 µM (inactive) | 17.8 µM (inactive) | 73.1 µM (inactive) | > 100 µM (inactive) |
| O=C1C(c2ccccc2)=C(c2ccccc2)C(c2ccc(Sc3ccc(C4=C(c5ccccc5)C(=O)C(c5ccccc5)=C4c4ccccc4)cc3)cc2)=C1c1ccccc1 | – | > 100 µM (inactive) | > 100 µM (inactive) | > 100 µM (inactive) | > 100 µM (inactive) | > 100 µM (inactive) | > 100 µM (inactive) | > 100 µM (inactive) | – | > 100 µM (inactive) | > 100 µM (inactive) | 31.3 µM (inactive) | > 100 µM (inactive) | > 100 µM (inactive) | > 100 µM (inactive) | > 100 µM (inactive) | > 100 µM (inactive) | > 100 µM (inactive) |
